The values below come from paper PMC1989143, “An Expanded Set of Amino Acid Analogs for the Ribosomal Translation of Unnatural Peptides” (PLoS ONE, 2007).

Holding throughout (assay): tRNA aminoacylation competition assay, MALDI-TOF MS
Holding throughout (type): biochemical

One experiment deals with T1, HisRS (Escherichia coli, UniProt P60906).
T1 construct: gene hisS; His-tagged, recombinant, purified
T1 sequence (P60906 2-424): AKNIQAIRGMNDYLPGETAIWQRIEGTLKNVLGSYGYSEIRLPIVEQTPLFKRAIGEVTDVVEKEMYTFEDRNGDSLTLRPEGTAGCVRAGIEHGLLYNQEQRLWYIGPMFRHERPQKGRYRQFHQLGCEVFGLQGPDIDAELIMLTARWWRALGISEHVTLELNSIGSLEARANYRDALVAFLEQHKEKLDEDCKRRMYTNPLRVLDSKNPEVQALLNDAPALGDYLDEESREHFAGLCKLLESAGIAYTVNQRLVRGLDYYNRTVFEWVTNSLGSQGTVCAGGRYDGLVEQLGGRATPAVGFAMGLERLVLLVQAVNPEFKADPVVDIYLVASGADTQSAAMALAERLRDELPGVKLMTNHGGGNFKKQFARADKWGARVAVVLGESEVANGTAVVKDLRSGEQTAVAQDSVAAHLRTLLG
As to conditions: 15000 µM; 15 µM natural His (Table 3), 6 mM ATP, 17 mM MgCl2, E. coli total tRNA, pH 7.4, 37 °C; competitive. The source says:
tRNA aminoacylation competition assay, MALDI-TOF MS on HisRS

A further experiment addresses T2, TyrRS (Escherichia coli, UniProt P0AGJ9).
T2 construct: gene tyrS; His-tagged, recombinant, purified
The settings on record: 5000 µM; 5 µM natural Tyr (Table 3), 6 mM ATP, 17 mM MgCl2, E. coli total tRNA, pH 7.4, 37 °C; competitive. An excerpt:
tRNA aminoacylation competition assay, MALDI-TOF MS on TyrRS

Another experiment concerns the target T3, GluRS (Escherichia coli, UniProt P04805).
T3 construct: gene gltX; His-tagged, recombinant, purified
T3 sequence (P04805 1-471): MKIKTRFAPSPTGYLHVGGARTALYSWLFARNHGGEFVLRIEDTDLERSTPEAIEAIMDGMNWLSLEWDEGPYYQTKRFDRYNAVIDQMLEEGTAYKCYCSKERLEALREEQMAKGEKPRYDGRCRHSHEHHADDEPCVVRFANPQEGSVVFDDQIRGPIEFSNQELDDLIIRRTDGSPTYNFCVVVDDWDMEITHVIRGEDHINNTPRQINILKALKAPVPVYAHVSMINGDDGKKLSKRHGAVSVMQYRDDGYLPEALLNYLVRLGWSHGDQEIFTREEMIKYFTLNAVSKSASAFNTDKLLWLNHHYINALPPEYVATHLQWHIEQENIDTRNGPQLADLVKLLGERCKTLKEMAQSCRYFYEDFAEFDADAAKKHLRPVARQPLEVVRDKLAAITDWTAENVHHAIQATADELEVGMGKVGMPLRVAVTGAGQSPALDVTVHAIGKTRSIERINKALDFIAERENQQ
As to conditions: 10000 µM; 10 µM natural Glu (Table 3), 6 mM ATP, 17 mM MgCl2, E. coli total tRNA, pH 7.4, 37 °C; competitive. An excerpt:
tRNA aminoacylation competition assay, MALDI-TOF MS on GluRS

The next experiment has as its target T4, TrpRS (Escherichia coli, UniProt P00954).
T4 construct: gene trpS
As to conditions: 30000 µM; 30 µM natural Trp (Table 3), 6 mM ATP, 17 mM MgCl2, E. coli total tRNA, pH 7.4, 37 °C; competitive. An excerpt: tRNA aminoacylation competition assay, MALDI-TOF MS on TrpRS

For another experiment, the target named is T5, AspRS (Escherichia coli, UniProt P21889).
T5 construct: gene aspS; His-tagged, recombinant, purified
As to conditions: 50000 µM; 50 µM natural Asp (Table 3), 6 mM ATP, 17 mM MgCl2, E. coli total tRNA, pH 7.4, 37 °C; competitive. The source says: tRNA aminoacylation competition assay, MALDI-TOF MS on AspRS

The next experiment concerns the target T6, MetRS (Escherichia coli, UniProt P00959).
T6 construct: gene metG; His-tagged, recombinant, purified
T6 sequence (P00959 2-677): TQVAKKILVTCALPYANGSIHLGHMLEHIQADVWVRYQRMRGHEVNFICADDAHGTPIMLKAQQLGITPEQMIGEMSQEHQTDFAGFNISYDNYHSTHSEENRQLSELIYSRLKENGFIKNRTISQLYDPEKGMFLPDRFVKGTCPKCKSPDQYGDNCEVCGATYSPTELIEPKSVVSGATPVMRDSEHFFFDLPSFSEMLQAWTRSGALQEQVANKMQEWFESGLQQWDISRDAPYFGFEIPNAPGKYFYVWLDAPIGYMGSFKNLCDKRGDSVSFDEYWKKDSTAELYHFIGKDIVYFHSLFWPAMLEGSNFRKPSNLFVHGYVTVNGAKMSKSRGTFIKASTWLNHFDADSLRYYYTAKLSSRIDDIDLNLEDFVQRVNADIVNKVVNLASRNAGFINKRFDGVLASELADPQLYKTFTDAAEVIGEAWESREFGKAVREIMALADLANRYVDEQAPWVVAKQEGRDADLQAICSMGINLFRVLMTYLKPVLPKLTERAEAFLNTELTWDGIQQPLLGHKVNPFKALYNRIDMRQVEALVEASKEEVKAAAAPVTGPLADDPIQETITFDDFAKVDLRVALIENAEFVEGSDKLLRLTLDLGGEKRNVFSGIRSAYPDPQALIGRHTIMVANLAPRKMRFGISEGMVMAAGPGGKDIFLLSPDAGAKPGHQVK
The settings on record: 50000 µM; 50 µM natural Met (Table 3), 6 mM ATP, 17 mM MgCl2, E. coli total tRNA, pH 7.4, 37 °C; competitive. An excerpt:
tRNA aminoacylation competition assay, MALDI-TOF MS on MetRS

The next experiment concerns the target T7, ValRS (Escherichia coli, UniProt P07118).
T7 construct: gene valS; His-tagged, recombinant, purified
T7 sequence (P07118 1-951): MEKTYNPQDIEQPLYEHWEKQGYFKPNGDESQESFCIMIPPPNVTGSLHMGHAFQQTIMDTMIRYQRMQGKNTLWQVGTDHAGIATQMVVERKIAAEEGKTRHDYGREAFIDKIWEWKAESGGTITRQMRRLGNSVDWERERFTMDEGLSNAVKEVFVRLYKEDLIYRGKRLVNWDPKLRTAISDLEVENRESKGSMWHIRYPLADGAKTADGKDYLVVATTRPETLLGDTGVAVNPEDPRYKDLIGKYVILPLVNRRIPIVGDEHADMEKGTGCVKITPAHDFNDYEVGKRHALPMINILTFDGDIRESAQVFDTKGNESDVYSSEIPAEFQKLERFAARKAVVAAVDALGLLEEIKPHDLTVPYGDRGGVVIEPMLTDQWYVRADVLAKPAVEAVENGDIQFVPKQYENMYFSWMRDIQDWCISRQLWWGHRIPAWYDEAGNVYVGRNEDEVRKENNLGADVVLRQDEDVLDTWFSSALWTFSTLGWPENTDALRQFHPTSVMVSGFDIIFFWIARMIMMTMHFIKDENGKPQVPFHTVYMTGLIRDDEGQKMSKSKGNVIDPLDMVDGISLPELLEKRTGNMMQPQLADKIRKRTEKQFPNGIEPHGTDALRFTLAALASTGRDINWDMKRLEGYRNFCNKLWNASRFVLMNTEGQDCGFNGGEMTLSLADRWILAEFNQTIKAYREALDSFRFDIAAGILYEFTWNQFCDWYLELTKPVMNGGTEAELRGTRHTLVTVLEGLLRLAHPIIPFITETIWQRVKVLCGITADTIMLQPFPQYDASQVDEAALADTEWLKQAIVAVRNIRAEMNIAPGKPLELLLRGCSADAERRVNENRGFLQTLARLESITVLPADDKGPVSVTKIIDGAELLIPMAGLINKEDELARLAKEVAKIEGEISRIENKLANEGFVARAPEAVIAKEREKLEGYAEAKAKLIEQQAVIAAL
As to conditions: 50000 µM; 50 µM natural Val (Table 3), 6 mM ATP, 17 mM MgCl2, E. coli total tRNA, pH 7.4, 37 °C; competitive. The source says: tRNA aminoacylation competition assay, MALDI-TOF MS on ValRS

The next experiment deals with T8, LeuRS (Escherichia coli, UniProt P07813).
T8 construct: gene leuS; His-tagged, recombinant, purified; wild-type
As to conditions: 30000 µM; 30 µM natural Leu (Table 3), 6 mM ATP, 17 mM MgCl2, E. coli total tRNA, pH 7.4, 37 °C; competitive. The source says: tRNA aminoacylation competition assay, MALDI-TOF MS on LeuRS

Another experiment deals with T9, ProRS (Escherichia coli, UniProt P16659).
T9 construct: gene proS; His-tagged, recombinant, purified
T9 sequence (P16659 1-572): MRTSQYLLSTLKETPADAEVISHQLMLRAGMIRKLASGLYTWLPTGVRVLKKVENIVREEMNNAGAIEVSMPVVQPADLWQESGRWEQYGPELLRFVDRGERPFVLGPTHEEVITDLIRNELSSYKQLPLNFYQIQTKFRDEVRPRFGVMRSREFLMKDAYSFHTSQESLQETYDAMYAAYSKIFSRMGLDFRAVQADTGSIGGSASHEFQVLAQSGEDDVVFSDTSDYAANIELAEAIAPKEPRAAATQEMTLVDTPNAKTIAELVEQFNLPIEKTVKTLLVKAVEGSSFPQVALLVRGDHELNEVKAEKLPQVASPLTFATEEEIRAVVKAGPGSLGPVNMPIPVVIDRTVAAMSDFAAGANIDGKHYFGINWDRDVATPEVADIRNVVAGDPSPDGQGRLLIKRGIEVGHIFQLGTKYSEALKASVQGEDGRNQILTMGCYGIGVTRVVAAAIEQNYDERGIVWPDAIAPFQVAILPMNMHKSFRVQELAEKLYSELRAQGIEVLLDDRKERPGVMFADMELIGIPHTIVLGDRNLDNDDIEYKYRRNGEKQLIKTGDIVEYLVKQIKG
The settings on record: 50000 µM; 50 µM natural Pro (Table 3), 6 mM ATP, 17 mM MgCl2, E. coli total tRNA, pH 7.4, 37 °C; competitive. An excerpt:
tRNA aminoacylation competition assay, MALDI-TOF MS on ProRS

For `N[C@@H](Cc1nccs1)C(=O)O` [A1, β-2-thiazolyl-alanine], on HisRS, the “% Inhibition ^b” value is 20 (range 0.4) %.

On to `NC(Cc1ccc(O)c(F)c1)C(=O)O` (centres unmarked) [A3, 3-fluoro tyrosine], for which the “% Inhibition ^b” value on TyrRS is recorded as 46 (range 23.0) %.

Regarding `N[C@@H](Cn1oc(=O)[nH]c1=O)C(=O)O` [A15, L-quisqualic acid], the “% Inhibition ^b” value on GluRS is 52 (range 1.2) %.

In the case of `N[C@@H](Cc1csc2ccccc12)C(=O)O` [A23, 3-(thianaphthen-3-yl)-L-alanine], on TrpRS, the “% Inhibition ^b” value is on record as 19 (range 2.7) %.

Consider `N[C@H](C(=O)O)[C@H](O)C(=O)O` [C6, L-threo-β-hydroxy aspartic acid], for which the “% Inhibition ^b” value on AspRS is 59 (range 0.5) %.

In the case of `C#CCCC(N)C(=O)O` (centres unmarked) [N1, 2-amino hex-5-ynoic acid], the “% Inhibition ^b” value on MetRS is 82 (range 3.3) %.

Regarding `CCCC[C@H](N)C(=O)O` [N3, L-norleucine], at MetRS, the “% Inhibition ^b” value is 73 (range 0.5) %.

For the molecule `[N-]=[N+]=NCC[C@H](N)C(=O)O` [N6], the “% Inhibition ^b” value on MetRS was 97 (range 0.5) %.

`CC(C)(C)C(N)C(=O)O` (centres unmarked) [N13, t-butyl-glycine]: the “% Inhibition ^b” value at ValRS was 80 (range 0.4) %.

With `CC(CC(N)C(=O)O)C(F)(F)F` (centres unmarked) [N17, 5′,5′,5′-trifluoro leucine], the “% Inhibition ^b” value at LeuRS is 83 (range 16.7) %.

As to `CC(C)(C)C[C@H](N)C(=O)O` [N18, β-t-butyl-alanine], the “% Inhibition ^b” value on LeuRS is on record as 52 (range 22.2) %.

For the molecule `O=C(O)[C@@H]1C=CCN1` [N23, 3,4-dehydro proline], at ProRS, the “% Inhibition ^b” value is reported as 67 (range 12.6) %.

Consider `O=C(O)[C@@H]1CCN1` [N24, L-azetidine-2-carboxylic acid], for which the “% Inhibition ^b” value on ProRS is on record as 28 (range 10.0) %.

For the molecule `NC1(C(=O)O)CCCC1` [α1, 1-amino cyclopentanoic acid], the “% Inhibition ^b” value on ValRS was 59 (range 3.3) %.
